Source: paper PMC4152863 (Regulatory peptides, 2013)
“And” between values parts separate entries of the source, which are not always exact repeats. Equal entries are not always repeated. “Also recorded” adds a separate entry of the source. Where two headings read alike, the source gives them in different places.

Key:
[1] = target: T1, novel, non-AT1, non-AT2 angiotensin binding site (neurolysin) (Rattus norvegicus, UniProt P42676); assay: Inhibition or enhancement of PCMB-unmasked 125I-SI Ang II binding in membranes
T1 sequence (P42676 38-704): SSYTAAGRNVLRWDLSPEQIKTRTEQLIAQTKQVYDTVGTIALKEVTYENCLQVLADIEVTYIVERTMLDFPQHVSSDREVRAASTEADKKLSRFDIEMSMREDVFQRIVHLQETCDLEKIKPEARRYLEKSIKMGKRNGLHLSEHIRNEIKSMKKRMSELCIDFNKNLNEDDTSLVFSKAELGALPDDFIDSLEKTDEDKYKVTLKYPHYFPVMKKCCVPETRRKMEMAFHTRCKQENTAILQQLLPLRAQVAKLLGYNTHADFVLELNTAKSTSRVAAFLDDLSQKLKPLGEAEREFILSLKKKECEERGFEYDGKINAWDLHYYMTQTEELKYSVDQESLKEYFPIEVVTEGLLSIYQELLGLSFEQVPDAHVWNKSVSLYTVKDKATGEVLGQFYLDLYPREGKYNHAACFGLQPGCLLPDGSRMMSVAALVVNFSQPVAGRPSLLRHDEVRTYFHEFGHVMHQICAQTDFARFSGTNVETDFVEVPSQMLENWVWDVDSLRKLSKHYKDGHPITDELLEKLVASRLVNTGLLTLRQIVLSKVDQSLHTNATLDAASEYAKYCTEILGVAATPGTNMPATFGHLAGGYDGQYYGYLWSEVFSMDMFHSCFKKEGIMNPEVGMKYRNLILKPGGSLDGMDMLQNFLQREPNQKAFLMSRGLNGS

[2] = target: T1, novel, non-AT1, non-AT2 angiotensin binding site (neurolysin); conditions: cited from earlier work
neurolysin = conditions: cited from earlier work
[3] = target: T1, novel, non-AT1, non-AT2 angiotensin binding site (neurolysin); assay: Unmasking of specific 125I-SI Ang II binding in membranes
liver AT1 receptors = liver AT1 receptors (Rattus norvegicus, UniProt P25095); format: binding; conditions: for Kd of 125I-SI Ang II binding: liver
liver AT1 receptors, sequence (P25095 whole entry): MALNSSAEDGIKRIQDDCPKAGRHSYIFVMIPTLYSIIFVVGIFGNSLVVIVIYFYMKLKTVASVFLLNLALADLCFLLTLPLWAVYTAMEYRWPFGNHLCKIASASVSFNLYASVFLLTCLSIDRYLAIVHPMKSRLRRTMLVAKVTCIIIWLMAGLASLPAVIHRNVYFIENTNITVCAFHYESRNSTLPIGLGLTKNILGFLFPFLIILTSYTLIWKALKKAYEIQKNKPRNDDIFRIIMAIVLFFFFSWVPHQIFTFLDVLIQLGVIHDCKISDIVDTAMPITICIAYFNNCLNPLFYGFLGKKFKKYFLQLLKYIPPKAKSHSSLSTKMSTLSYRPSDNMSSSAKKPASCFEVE

Sprague-Dawley rats = assay: Drinking test after icv Ang II with or without HgCl2; format: in vivo, rat; conditions: ICV 200 pmoles HgCl2 with 100 pmoles Ang II; water intake over 30 min
thimet oligopeptidase = conditions: cited from earlier work
[4] = brain and testis, ~100 μM primary screening or range of concentrations
[5] = 100 μM test compound, 100 μM PCMB, brain and testis

For O=[N+]([O-])[O-].[Na+] [Sodium nitrate], the “inhibition of PCMB-unmasked 125I-SI Ang II binding, primary screening (in words)” value (“inhibition … primary screening (in words)” for short) [1] was “did not show any inhibition”.
For O[C@@H](CS)[C@@H](O)CS [DTT], the “reversal of PCMB unmasking of Ang II binding (in words)” value [2] is given as “reversed” and the “inhibition of the enzymatic activity of neurolysin (in words)” value (neurolysin) is given as “can be inhibited”.
In the case of O=C(O)c1ccc(O)cc1 [4-hydroxybenzoic acid], the “unmasking of specific 125I-SI Ang II binding in the absence of PCMB (in words)” value (“unmasking … of PCMB (in words)” below) [3, 4] is reported as “did not promote”.
For O=[N+]([O-])[O-].[Ag+] [AgNO3, silver nitrate], the “inhibition … primary screening (in words)” value [1] was “significantly reduced; also recorded: substantially inhibited”, the “IC50's for inhibition of 125I-SI Ang II binding” value (“IC50's for inhibition” for short) ([1]; brain and testis, 100 μM PCMB) was 1000 to 20000 nM and the “IC50 for inhibition of 125I-SI Ang II binding” value (from here on “IC50 for inhibition”) ([1]; brain, 100 μM PCMB) was 1770 nM. For the same compound, the “IC50 for inhibition” value ([1]; testis, 100 μM PCMB) was 21300 nM.
For O=C(O)c1cc[c]([Hg][OH])cc1 [4-hydroxymercuribenzoate, 4-hydroxymercuribenzoic acid], the “inhibition … primary screening (in words)” value [1] was “moderately inhibited”, the “unmasking … of PCMB (in words)” value [3] was “unmasked non-AT1, non-AT2 binding independent of PCMB; also recorded: partial unmasking; also recorded: capable of fully unmasking” and the “concentration for optimal (peak) unmasking of 125I-SI Ang II binding” value (“concentration for optimal” for short) ([3]; brain and testis) was ~ 300 μM. The “concentration for optimal” value ([3]; brain and testis, listed as 4-OH Hg bza) was 300 µM.
For NCCCNCCS [WR-1065], the “inhibition … primary screening (in words)” value [1, 5] was “did not inhibit”.
In the case of Cc1cc(-c2ccc(/N=N/c3ccc4c(S(=O)(=O)O)cc(S(=O)(=O)O)c(N)c4c3O)c(C)c2)ccc1/N=N/c1ccc2c(S(=O)(=O)O)cc(S(=O)(=O)O)c(N)c2c1O [Evans blue], the “effect on 125I-SI Ang II binding in the presence of PCMB (in words)” value ([1]; 100 μM, brain and testis) is reported as “enhanced”, the “Rmax for enhancement of specific 125I-SI Ang II binding in the presence of PCMB” value ([1]; brain, 100 μM PCMB) is reported as 163±56% and the “Rmax for enhancement of specific 125I-SI Ang II binding in the presence of PCMB” value ([1]; testis, 100 μM PCMB) is reported as 442±340%. The “unmasking … of PCMB (in words)” value [3, 4] was “unable to unmask”.
For OCCS [2-mercaptoethanol, 2-mercaptoethanol], the “reversal of PCMB unmasking of Ang II binding (in words)” value [2] is listed as “reversed”.
In the case of [Cl][Mn][Cl] [manganese chloride], the “unmasking … of PCMB (in words)” value [3] is reported as “greater unmasking in testis compared to brain”.
With NCCS [cysteamine] the “inhibition of PCMB unmasking of 125I-SI Ang II binding, primary screening” value (“inhibition of PCMB unmasking … primary screening” below) [1, 5] was “more than 50%”, the “IC50 for inhibition” value ([1]; brain, 100 μM PCMB) was 28100 nM and the “IC50 for inhibition” value ([1]; testis, 100 μM PCMB) was 138000 nM.
In the case of OO [hydrogen peroxide], the “inhibition … primary screening (in words)” value [1] is reported as “did not inhibit”.
In the case of COC([CH2][Hg+])CNC(=O)c1ccccc1OCC(=O)O.[OH-] (stereo not shown) [mersalyl acid], the “inhibition … primary screening (in words)” value [1] is reported as “full inhibition”, the “inhibition of PCMB unmasking … primary screening” value [1, 5] is reported as “more than 50%” and the “IC50's for inhibition” value ([1]; brain and testis, 100 μM PCMB) is reported as 1000 to 20000 nM. The “IC50 for inhibition” value ([1]; brain, 100 μM PCMB) was 1100 nM, the “IC50 for inhibition” value ([1]; testis, 100 μM PCMB) was 2270 nM and the “unmasking of 125I-SI Ang II binding at concentrations up to 1 mM (in words)” value ([3]; brain and testis, absence of PCMB, data not shown) was “no ability to unmask; also recorded: did not unmask”.
With [Cl][Hg][Cl] [HgCl2, mercuric chloride] the “Bmax of 125I-SI Ang II binding” value (liver AT1 receptors) was 20.8±1.8 and 20.6±2.4 and 20.4±4.4, the “effect on 125I-SI Ang II binding to AT1 receptors (in words)” value (liver AT1 receptors) was “lack of effect; also recorded: did not impair” and the “Kd of 125I-SI Ang II binding” value (liver AT1 receptors; 10 μM HgCl2) was 2.93±0.40. The “Kd of 125I-SI Ang II binding” value (liver AT1 receptors; 30 μM HgCl2) was 2.41±0.46, the “Kd of 125I-SI Ang II binding” value (liver AT1 receptors; 100 μM HgCl2) was 3.15±1.1 and the “effect on dipsogenic response to Ang II (in words)” value (Sprague-Dawley rats) was “lack of effect; also recorded: did not affect”. For the same compound, the “inhibition … primary screening (in words)” value [1] was “significantly reduced; also recorded: substantially inhibited”, the “IC50's for inhibition” value ([1]; brain and testis, 100 μM PCMB) was 1000 to 20000 nM and the “IC50 for inhibition” value ([1]; brain, 100 μM PCMB) was 14300 nM. For the same compound, the “IC50 for inhibition” value ([1]; testis, 100 μM PCMB) was 11000 nM.
For O=C(O)c1cc[c]([Hg][Cl])cc1 [PCMB, parachloromercuribenzoic acid], the “unmasking of Ang II binding to thimet oligopeptidase (in words)” value (thimet oligopeptidase) is given as “does not unmask” and the “concentration for optimal” value ([3]; brain and testis) is given as 100 to 300 µM.
In the case of NCCCNCCSP(=O)(O)O [amifostine], the “inhibition of PCMB unmasking … primary screening” value [1, 5] is reported as “more than 50%” and the “inhibition in secondary screening” value ([1]; at or above 100 μM, 100 μM PCMB, data not shown) is reported as less than 50%.
